Data on 16 molecules can be found in PubChem BioAssay AID200 (DTP/NCI, 2004).

For the assay, the system named is B6C3F1 mice, B16 melanoma ip, median survival T/C. In words: NCI In Vivo Anticancer Drug Screen. Data for tumor model B16 Melanoma (intraperitoneal) in B6C3F1 mice. To be noted: endpoint: median survival time, higher = longer survival. In outline: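 Antitumor effect was judged in mice with transplanted tumors by dividing the treated group's survival measure by that of vehicle controls.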

Where [1] appears, read: dose: 6.25 mg/kg/injection, schedule: Q01DX009 (ip), vehicle: Klucel (hydroxypropylcellulose) (HPC).
Where [2] appears, read: dose: 12.5 mg/kg/injection, schedule: Q01DX009 (ip), vehicle: Klucel (hydroxypropylcellulose) (HPC).
The mark [3] stands for this setting: dose: 100.0 mg/kg/injection, schedule: Q01DX009 (ip), vehicle: Klucel (hydroxypropylcellulose) (HPC).
[4] abbreviates: dose: 200.0 mg/kg/injection, schedule: Q01DX009 (ip), vehicle: Klucel (hydroxypropylcellulose) (HPC).
The mark [5] stands for this setting: dose: 400.0 mg/kg/injection, schedule: Q01DX009 (ip), vehicle: Klucel (hydroxypropylcellulose) (HPC).
Setting [6] is: dose: 12.5 mg/kg/injection, schedule: Q01DX009 (ip), vehicle: saline with Tween-80.
The mark [7] stands for this setting: dose: 25.0 mg/kg/injection, schedule: Q01DX009 (ip), vehicle: saline with Tween-80.
The mark [8] stands for this setting: dose: 50.0 mg/kg/injection, schedule: Q01DX009 (ip), vehicle: saline with Tween-80.
Where [9] appears, read: dose: 25.0 mg/kg/injection, schedule: Q01DX009 (ip), vehicle: Klucel (hydroxypropylcellulose) (HPC).
Where [10] appears, read: dose: 50.0 mg/kg/injection, schedule: Q01DX009 (ip), vehicle: Klucel (hydroxypropylcellulose) (HPC).
The mark [11] stands for this setting: dose: 100.0 mg/kg/injection, schedule: Q01DX009 (ip), vehicle: saline with Tween-80.
Where [12] appears, read: dose: 200.0 mg/kg/injection, schedule: Q01DX009 (ip), vehicle: saline with Tween-80.

Several values for one entry are separate records, joined by “and”; a condition that tells them apart may be missing. Identical values can stand only once. Toxic doses and inconclusive results are not listed. Where a SMILES comes first, the peptide text is derived from it.

`Nc1ccc(C(=O)O)c(O)c1`: the T/C was 90 % of control (dose: 4.7 mg/kg/injection, schedule: Q01DX009 (ip), vehicle: saline with Tween-80); 95 % of control under setting [1]; 113 % of control and 103 % of control (dose: 9.3 mg/kg/injection, schedule: Q01DX009 (ip), vehicle: saline with Tween-80); 101 % of control under setting [2]; 93 % of control and 102 % of control (dose: 18.7 mg/kg/injection, schedule: Q01DX009 (ip), vehicle: saline with Tween-80); 109 % of control (2×) and 97 % of control (dose: 37.5 mg/kg/injection, schedule: Q01DX009 (ip), vehicle: saline with Tween-80). Besides, the T/C by setting is: (dose: 75.0 mg/kg/injection, schedule: Q01DX009 (ip), vehicle: saline with Tween-80) 99 % of control and 100 % of control and 106 % of control; under setting [3], 92 % of control; (dose: 150.0 mg/kg/injection, schedule: Q01DX009 (ip), vehicle: saline with Tween-80) 93 % of control; under setting [4], 86 % of control; (dose: 300.0 mg/kg/injection, schedule: Q01DX009 (ip), vehicle: saline with Tween-80) 97 % of control.
For `CC(O)C(NC(=O)CNC(=O)CNC(=O)OCc1ccccc1)C(=O)O` (centres undefined) (HELM PEPTIDE1{[O=C(OCc1ccccc1)[*:2]].G.G.[CC(O)C(N[*:1])C(=O)O]}$$$$V2.0), the T/C runs as follows: under setting [3], 103 % of control; under setting [4], 106 % of control; under setting [5], 113 % of control.
Take `CCCCNC(C)(C)COC(=O)/C=C/c1ccc(OCCCC)cc1`: the T/C is 98 % of control under setting [6], 93 % of control under setting [7] and 90 % of control under setting [8].
With `CC1=NNC(=O)C1CCO` (centres undefined), the T/C runs as follows: under setting [2], 98 % of control; under setting [9], 104 % of control; under setting [10], 98 % of control; under setting [3], 98 % of control; under setting [4], 96 % of control; under setting [5], 96 % of control.
`CC(O)C(NC(=O)OCC1c2ccccc2-c2ccccc21)C(=O)O` (centres undefined): the T/C under setting [2] was 94 % of control and 98 % of control; the T/C under setting [9] was 88 % of control and 96 % of control; the T/C under setting [10] was 100 % of control and 101 % of control; the T/C under setting [3] was 93 % of control and 98 % of control; the T/C under setting [4] is 90 % of control and 100 % of control.
`CCCCC(NC(=O)C(C)N)C(=O)O` (centres undefined): the T/C is 102 % of control under setting [10], 107 % of control under setting [3], 96 % of control under setting [4] and 93 % of control under setting [5].
On to `CCC(=O)Sc1ccccc1C(=O)Nc1ccc(Cl)cc1`, for which the T/C is 104 % of control under setting [7], 117 % of control under setting [8], 108 % of control under setting [11] and 115 % of control under setting [12].
Consider `COc1cc([C@@H]2c3cc4c(cc3[C@H](OC3OC5COC(c6ccccc6)OC5C(O)C3O)[C@H]3COC(=O)[C@H]23)OCO4)cc(OC)c1OC` (some centres undefined), for which the T/C was 123 % of control (dose: 6.25 mg/kg/injection, schedule: Q01DX009 (ip), vehicle: saline with Tween-80); 154 % of control under setting [7]; 169 % of control and 177 % of control under setting [8].
For the molecule `C=C1CCC2C(c3c(C)c(O)c4c(c31)C(=O)C(C)C4)C2(C)C` (centres undefined), the T/C was 102 % of control (dose: 3.13 mg/kg/injection, schedule: Q01DX009 (ip), vehicle: Klucel (hydroxypropylcellulose) (HPC)); 89 % of control under setting [1]; 95 % of control under setting [2]; 89 % of control under setting [9].
`CCOC(=O)c1c(C)c(C(=O)OCC)n(CC)c1C=O`: the T/C under setting [8] was 86 % of control, the T/C under setting [11] is 89 % of control and the T/C under setting [12] is 93 % of control.
As to `COc1cc(Cl)ccc1C`, the T/C by setting is: (dose: 9.37 mg/kg/injection, schedule: Q01DX009 (ip), vehicle: Klucel (hydroxypropylcellulose) (HPC)) 100 % of control; (dose: 18.75 mg/kg/injection, schedule: Q01DX001 (ip), vehicle: Klucel (hydroxypropylcellulose) (HPC)) 109 % of control; (dose: 18.75 mg/kg/injection, schedule: Q01DX009 (ip), vehicle: Klucel (hydroxypropylcellulose) (HPC)) 100 % of control; (dose: 37.5 mg/kg/injection, schedule: Q01DX001 (ip), vehicle: Klucel (hydroxypropylcellulose) (HPC)) 107 % of control; (dose: 37.5 mg/kg/injection, schedule: Q01DX009 (ip), vehicle: Klucel (hydroxypropylcellulose) (HPC)) 98 % of control; (dose: 75.0 mg/kg/injection, schedule: Q01DX001 (ip), vehicle: Klucel (hydroxypropylcellulose) (HPC)) 115 % of control. The T/C was 101 % of control (dose: 75.0 mg/kg/injection, schedule: Q01DX009 (ip), vehicle: Klucel (hydroxypropylcellulose) (HPC)); 110 % of control (dose: 150.0 mg/kg/injection, schedule: Q01DX001 (ip), vehicle: Klucel (hydroxypropylcellulose) (HPC)); 100 % of control (dose: 150.0 mg/kg/injection, schedule: Q01DX009 (ip), vehicle: Klucel (hydroxypropylcellulose) (HPC)); 111 % of control (dose: 300.0 mg/kg/injection, schedule: Q01DX001 (ip), vehicle: Klucel (hydroxypropylcellulose) (HPC)); 95 % of control (dose: 300.0 mg/kg/injection, schedule: Q01DX009 (ip), vehicle: Klucel (hydroxypropylcellulose) (HPC)).
For `CNC(=O)Oc1ccc[nH]c1=O`, the T/C runs as follows: (dose: 16.0 mg/kg/injection, schedule: Q01DX009 (ip), vehicle: saline with Tween-80) 101 % of control; (dose: 32.0 mg/kg/injection, schedule: Q01DX009 (ip), vehicle: saline with Tween-80) 100 % of control; (dose: 64.0 mg/kg/injection, schedule: Q01DX009 (ip), vehicle: saline with Tween-80) 101 % of control; (dose: 128.0 mg/kg/injection, schedule: Q01DX009 (ip), vehicle: saline with Tween-80) 100 % of control; (dose: 256.0 mg/kg/injection, schedule: Q01DX009 (ip), vehicle: saline with Tween-80) 95 % of control.
As to `COc1ccc(/C=C/C(=O)c2cc(C(=O)O)c(OC)cc2OC)cc1OC`, the T/C is, setting by setting: under setting [6], 100 % of control; (dose: 12.5 mg/kg/injection, schedule: Q01DX009 (ip), vehicle: suspension in saline) 106 % of control; under setting [7], 94 % of control; (dose: 25.0 mg/kg/injection, schedule: Q01DX009 (ip), vehicle: suspension in saline) 101 % of control; under setting [8], 96 % of control; (dose: 50.0 mg/kg/injection, schedule: Q01DX009 (ip), vehicle: suspension in saline) 106 % of control. In addition, the T/C under setting [11] is 88 % of control; the T/C (dose: 100.0 mg/kg/injection, schedule: Q01DX009 (ip), vehicle: suspension in saline) was 96 % of control; the T/C under setting [12] is 96 % of control; the T/C (dose: 200.0 mg/kg/injection, schedule: Q01DX009 (ip), vehicle: suspension in saline) is 108 % of control; the T/C (dose: 400.0 mg/kg/injection, schedule: Q01DX009 (ip), vehicle: suspension in saline) was 98 % of control.
As for `CCCCCC1c2cc(O)ccc2OC1N1CCOCC1` (centres undefined), the T/C is 90 % of control (dose: 6.0 mg/kg/injection, schedule: Q01DX009 (ip), vehicle: saline with Tween-80); 103 % of control (dose: 12.0 mg/kg/injection, schedule: Q01DX009 (ip), vehicle: saline with Tween-80); 106 % of control under setting [6]; 96 % of control and 107 % of control under setting [7]; 98 % of control and 102 % of control under setting [8]; 94 % of control and 106 % of control under setting [11]. In addition, under setting [12], the T/C is 96 % of control and 97 % of control.
Turning to `Cc1cc2nc3ccc(N)cc3oc-2cc1=[N+](C)C`, the T/C was 106 % of control (dose: 12.5 mg/kg/injection, schedule: Q01DX009 (ip), vehicle: saline) and 112 % of control (dose: 25.0 mg/kg/injection, schedule: Q01DX009 (ip), vehicle: saline).
For `NCC(O)c1ccc(O)c(O)c1` (centres undefined), the T/C was 109 % of control (dose: 0.39 mg/kg/injection, schedule: Q01DX009 (ip), vehicle: suspension in saline); 96 % of control (dose: 0.75 mg/kg/injection, schedule: Q01DX009 (ip), vehicle: suspension in saline); 103 % of control (dose: 1.5 mg/kg/injection, schedule: Q01DX009 (ip), vehicle: suspension in saline); 100 % of control (dose: 3.0 mg/kg/injection, schedule: Q01DX009 (ip), vehicle: suspension in saline); 100 % of control and 106 % of control (dose: 6.0 mg/kg/injection, schedule: Q01DX009 (ip), vehicle: suspension in saline); 124 % of control and 105 % of control (dose: 12.0 mg/kg/injection, schedule: Q01DX009 (ip), vehicle: suspension in saline). For the same molecule, the T/C (dose: 24.0 mg/kg/injection, schedule: Q01DX009 (ip), vehicle: suspension in saline) was 100 % of control.
